Test results reported in US5328913A, “Minoxidil analogs as inhibitors of cell proliferation and lysyl hydroxylase” (priority 1992, dated 1994).

What was measured:
[1] = tested on: lysyl hydroxylase; test: Lysyl hydroxylase activity in extracts of treated human skin fibroblasts (Example 1, tritium-release assay); type: cell-based; details: 0.1 mM; dissolved in HCl; final concentration 0.0012 N; 72 h (Table II footnote a)
[2] = in vivo; cited from earlier work

In the case of `Nc1cc(N2CCCCC2)nc(N)[n+]1[O-]` [Minoxidil], the “Lysyl hydroxylase activity (%)” value [1] is given as 45% and the “antihypertensive / hypotensive activity (in words)” value [2] is given as “hypotensive activity”.
